Reference: patent US11000033B2, “Ketone or oxime compound, and herbicide” (NISSAN CHEMICAL CORPORATION, priority 2014, dated 2021)

Key:
Assay type in all cases: in vivo
Avena fatua = assay: Test Example 4: herbicidal effect by soil treatment (symbol I); conditions: application herbicide amount 320 g/ha
Outline: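 Seeds were sown in sterilized diluvial soil, covered with about 1.5 cm of soil, and the soil surface was sprayed with a water-diluted emulsion of the compound at a predetermined rate. Plants grew in a greenhouse at 25° C. to 30° C.; effects were scored visually 3 weeks after application.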

rice = assay: Test Example 4: effect on crop by soil treatment (symbol b); conditions: application herbicide amount 320 g/ha
Outline: (§1)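 Diluvial soil (sterilized) in boxes; seeds placed spot-wise alongside weed species; ~1.5 cm covering soil. Greenhouse, 25–30° C.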

Scirpus juncoides [1] = assay: Test Example 2: herbicidal activity, application during weed generation in submerged conditions (symbol B); conditions: Table 23; application herbicide amount 320 g/ha; grade 0-5 by criteria of Test Example 1
Outline: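 Compound was applied as a water-diluted emulsion into the standing water of flooded pots (4 cm) once co-sown weeds reached one to two leaves. Greenhouse temperature was 25° C. to 30° C., soil was alluvial, and each species was rated visually after 3 weeks.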

rapeseed = assay: Test Example 4: effect on crop by soil treatment (symbol g); conditions: application herbicide amount 320 g/ha
Outline: as §1

Veronica persica = assay: Test Example 5: herbicidal effect by foliage application, plastic box (symbol R); conditions: 320 g/ha, 3 weeks after application
Outline: (§2)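 Post-emergence spray; diluvial soil (sterilized), ~1.5 cm seed cover; greenhouse 25–30° C; 14-day-old plants; water-diluted emulsion at predetermined dose; visual score at 3 wk post-treatment.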

Digitaria ciliaris = assay: Test Example 5: herbicidal effect by foliage application, plastic box (symbol F); conditions: 320 g/ha, 3 weeks after application
Outline: as §2

corn [2] = assay: Test Example 5: effect on crop by foliage application, plastic box (symbol c); conditions: 320 g/ha, 3 weeks after application
Outline: (§3)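 Foliage-application test plants come from spot sowing in sterilized diluvial soil under a soil layer of about 1.5 cm, grown at 25° C. to 30° C. in a greenhouse.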

Lolium multiflorum Lam. = assay: Test Example 5: herbicidal effect by foliage application, plastic box (symbol K); conditions: 320 g/ha, 3 weeks after application
Outline: as §2

Monochoria vaginalis = assay: Test Example 1: herbicidal activity, application before weed generation in submerged conditions (symbol C); conditions: application herbicide amount 320 g/ha
Outline: (§4)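 Application before weed emergence: an aqueous dilution of the emulsion formulation was poured onto the surface of 4 cm-deep floodwater on the day of sowing. Effect was judged after 3 weeks (greenhouse, 25–30 °C).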

soybean = assay: Test Example 5: effect on crop by foliage application, plastic box (symbol d); conditions: 320 g/ha, 3 weeks after application
Outline: as §3

corn [3] = assay: Test Example 4: effect on crop by soil treatment (symbol c); conditions: application herbicide amount 320 g/ha
Outline: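 Sterilized diluvial soil, spot sowing, ~1.5 cm soil cover; greenhouse 25–30° C.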

Scirpus juncoides [4] = assay: Test Example 1: herbicidal activity, application before weed generation in submerged conditions (symbol B); conditions: application herbicide amount 320 g/ha
Outline: as §4

Galium spurium = assay: Test Example 5: herbicidal effect by foliage application, plastic box (symbol Q); conditions: 320 g/ha, 3 weeks after application
Outline: as §2

Chenopodium album = assay: Test Example 5: herbicidal effect by foliage application, plastic box (symbol O); conditions: 320 g/ha, 3 weeks after application
Outline: as §2

Compound	Herbicidal effect grade, I: Avena fatua (Avena fatua)	Effect on crop grade, b: directly sowed rice plant (rice)	Herbicidal effect grade, B: Scirpus juncoides (Scirpus juncoides [1])	Effect on crop grade, g: rapeseed (rapeseed)	R: Veronica persica, herbicidal effect (criteria of Test Example 1) (Veronica persica)	F: Digitaria ciliaris, herbicidal effect (criteria of Test Example 1) (Digitaria ciliaris)	c: corn, effect on crop (criteria of Test Example 1) (corn [2])	K: Lolium multiflorum Lam., herbicidal effect (criteria of Test Example 1) (Lolium multiflorum Lam.)	Herbicidal effect grade, C: Monochoria vaginalis (Monochoria vaginalis)	d: soybean, effect on crop (criteria of Test Example 1) (soybean)	Effect on crop grade, c: corn (corn [3])	Herbicidal effect grade, B: Scirpus juncoides (Scirpus juncoides [4])	Q: Galium spurium, herbicidal effect (criteria of Test Example 1) (Galium spurium)	O: Chenopodium album, herbicidal effect (criteria of Test Example 1) (Chenopodium album)
CON=C(C)C(C)C1CC(O)=C(c2c(C)cc(Br)cc2OC)C1=O (stereo not shown) [6-113]	0 (Herbicidal ratio of 5% or lower (almost no effect))	5 (Herbicidal ratio of 90% or more (almost completely withered))	0 (Herbicidal ratio of 5% or lower (almost no effect))	1 (Herbicidal ratio of 5% or higher and lower than 20%)	0 (Herbicidal ratio of 5% or lower (almost no effect))	5 (Herbicidal ratio of 90% or more (almost completely withered))	5 (Herbicidal ratio of 90% or more (almost completely withered))	5 (Herbicidal ratio of 90% or more (almost completely withered))	0 (Herbicidal ratio of 5% or lower (almost no effect))	0 (Herbicidal ratio of 5% or lower (almost no effect))	1 (Herbicidal ratio of 5% or higher and lower than 20%)	0 (Herbicidal ratio of 5% or lower (almost no effect))	0 (Herbicidal ratio of 5% or lower (almost no effect))	2 (Herbicidal ratio of 20% or higher and lower than 40%)
CC(=O)CC1CC(O)=C(c2c(C)cc(Br)cc2C)C1=O (stereo not shown) [7-002]	0 (Herbicidal ratio of 5% or lower (almost no effect))	5 (Herbicidal ratio of 90% or more (almost completely withered))	0 (Herbicidal ratio of 5% or lower (almost no effect))	0 (Herbicidal ratio of 5% or lower (almost no effect))	0 (Herbicidal ratio of 5% or lower (almost no effect))	5 (Herbicidal ratio of 90% or more (almost completely withered))	3 (Herbicidal ratio of 40% or higher and lower than 70%)	5 (Herbicidal ratio of 90% or more (almost completely withered))	0 (Herbicidal ratio of 5% or lower (almost no effect))	0 (Herbicidal ratio of 5% or lower (almost no effect))	0 (Herbicidal ratio of 5% or lower (almost no effect))	0 (Herbicidal ratio of 5% or lower (almost no effect))	0 (Herbicidal ratio of 5% or lower (almost no effect))	0 (Herbicidal ratio of 5% or lower (almost no effect))
CCc1cc(Br)cc(C)c1C1=C(O)CC(CC(C)=O)C1=O (stereo not shown) [7-003]	4 (Herbicidal ratio of 70% or higher and lower than 90%)	5 (Herbicidal ratio of 90% or more (almost completely withered))	0 (Herbicidal ratio of 5% or lower (almost no effect))	0 (Herbicidal ratio of 5% or lower (almost no effect))	0 (Herbicidal ratio of 5% or lower (almost no effect))	5 (Herbicidal ratio of 90% or more (almost completely withered))	5 (Herbicidal ratio of 90% or more (almost completely withered))	5 (Herbicidal ratio of 90% or more (almost completely withered))	0 (Herbicidal ratio of 5% or lower (almost no effect))	2 (Herbicidal ratio of 20% or higher and lower than 40%)	0 (Herbicidal ratio of 5% or lower (almost no effect))	0 (Herbicidal ratio of 5% or lower (almost no effect))	0 (Herbicidal ratio of 5% or lower (almost no effect))	0 (Herbicidal ratio of 5% or lower (almost no effect))
CC(=O)CC1CC(O)=C(c2c(C)cc(-c3ccc(C(F)(F)F)cc3)cc2C)C1=O (stereo not shown) [7-005]	0 (Herbicidal ratio of 5% or lower (almost no effect))	1 (Herbicidal ratio of 5% or higher and lower than 20%)	0 (Herbicidal ratio of 5% or lower (almost no effect))	0 (Herbicidal ratio of 5% or lower (almost no effect))	0 (Herbicidal ratio of 5% or lower (almost no effect))	5 (Herbicidal ratio of 90% or more (almost completely withered))	4 (Herbicidal ratio of 70% or higher and lower than 90%)	5 (Herbicidal ratio of 90% or more (almost completely withered))	0 (Herbicidal ratio of 5% or lower (almost no effect))	0 (Herbicidal ratio of 5% or lower (almost no effect))	0 (Herbicidal ratio of 5% or lower (almost no effect))	0 (Herbicidal ratio of 5% or lower (almost no effect))	0 (Herbicidal ratio of 5% or lower (almost no effect))	3 (Herbicidal ratio of 40% or higher and lower than 70%)
COc1ccc(-c2cc(C)c(C3=C(O)CC(CC(C)=O)C3=O)c(C)c2)cc1 (stereo not shown) [7-006]	0 (Herbicidal ratio of 5% or lower (almost no effect))	3 (Herbicidal ratio of 40% or higher and lower than 70%)	0 (Herbicidal ratio of 5% or lower (almost no effect))	0 (Herbicidal ratio of 5% or lower (almost no effect))	0 (Herbicidal ratio of 5% or lower (almost no effect))	5 (Herbicidal ratio of 90% or more (almost completely withered))	4 (Herbicidal ratio of 70% or higher and lower than 90%)	5 (Herbicidal ratio of 90% or more (almost completely withered))	0 (Herbicidal ratio of 5% or lower (almost no effect))	0 (Herbicidal ratio of 5% or lower (almost no effect))	0 (Herbicidal ratio of 5% or lower (almost no effect))	0 (Herbicidal ratio of 5% or lower (almost no effect))	0 (Herbicidal ratio of 5% or lower (almost no effect))	3 (Herbicidal ratio of 40% or higher and lower than 70%)
